Data as given in article PMC9481151, “Discovery of new symmetrical and asymmetrical nitrile-containing 1,4-dihydropyridine derivatives as dual kinases and P-glycoprotein inhibitors: synthesis, in vitro assays, and in silico studies” (Journal of Enzyme Inhibition and Medicinal Chemistry, 2022).

Legend:
K-562 = assay: NCI single dose (10 µM) SRB screen; format: cell-based, human; settings: leukaemia, 48 h
MOLT-4 = assay: NCI single dose (10 µM) SRB screen; format: cell-based, human; settings: leukaemia, 48 h
SR = assay: NCI single dose (10 µM) SRB screen; format: cell-based, human; settings: leukaemia, 48 h
EKVX = assay: NCI single dose (10 µM) SRB screen; format: cell-based, human; settings: non-small cell lung cancer, 48 h
HOP-92 = assay: NCI single dose (10 µM) SRB screen; format: cell-based, human; settings: non-small cell lung cancer, 48 h
NCI-H226 = assay: NCI single dose (10 µM) SRB screen; format: cell-based, human; settings: non-small cell lung cancer, 48 h
NCI-H23 = assay: NCI single dose (10 µM) SRB screen; format: cell-based, human; settings: non-small cell lung cancer, 48 h
NCI-H322M = assay: NCI single dose (10 µM) SRB screen; format: cell-based; settings: non-small cell lung cancer, 48 h
NCI-H460 = assay: NCI single dose (10 µM) SRB screen; format: cell-based, human; settings: non-small cell lung cancer, 48 h
NCI-H522 = assay: NCI single dose (10 µM) SRB screen; format: cell-based, human; settings: non-small cell lung cancer, 48 h
COLO 205 = assay: NCI single dose (10 µM) SRB screen; format: cell-based, human; settings: colon cancer, 48 h
HCC-2998 = assay: NCI single dose (10 µM) SRB screen; format: cell-based, human; settings: colon cancer, 48 h
HCT-116 = assay: NCI single dose (10 µM) SRB screen; format: cell-based, human; settings: colon cancer, 48 h
HCT-15 = assay: NCI single dose (10 µM) SRB screen; format: cell-based, human; settings: colon cancer, 48 h
HT29 = assay: NCI single dose (10 µM) SRB screen; format: cell-based, human; settings: colon cancer, 48 h
KM12 = assay: NCI single dose (10 µM) SRB screen; format: cell-based, human; settings: colon cancer, 48 h
SW-620 = assay: NCI single dose (10 µM) SRB screen; format: cell-based, human; settings: colon cancer, 48 h
SF-268 = assay: NCI single dose (10 µM) SRB screen; format: cell-based, human; settings: CNS cancer, 48 h
SF-539 = assay: NCI single dose (10 µM) SRB screen; format: cell-based, human; settings: CNS cancer, 48 h
SNB-19 = assay: NCI single dose (10 µM) SRB screen; format: cell-based, human; settings: CNS cancer, 48 h
U251 = assay: NCI single dose (10 µM) SRB screen; format: cell-based, human; settings: CNS cancer, 48 h
LOX IMVI = assay: NCI single dose (10 µM) SRB screen; format: cell-based, human; settings: melanoma, 48 h
MALME-3M = assay: NCI single dose (10 µM) SRB screen; format: cell-based, human; settings: melanoma, 48 h
M14 = assay: NCI single dose (10 µM) SRB screen; format: cell-based, human; settings: melanoma, 48 h
SK-MEL-2 = assay: NCI single dose (10 µM) SRB screen; format: cell-based, human; settings: melanoma, 48 h
SK-MEL-5 = assay: NCI single dose (10 µM) SRB screen; format: cell-based, human; settings: melanoma, 48 h
UACC-257 = assay: NCI single dose (10 µM) SRB screen; format: cell-based, human; settings: melanoma, 48 h
UACC-62 = assay: NCI single dose (10 µM) SRB screen; format: cell-based, human; settings: melanoma, 48 h
IGROV1 = assay: NCI single dose (10 µM) SRB screen; format: cell-based, human; settings: ovarian cancer, 48 h
OVCAR-3 = assay: NCI single dose (10 µM) SRB screen; format: cell-based, human; settings: ovarian cancer, 48 h
OVCAR-4 = assay: NCI single dose (10 µM) SRB screen; format: cell-based, human; settings: ovarian cancer, 48 h
OVCAR-5 = assay: NCI single dose (10 µM) SRB screen; format: cell-based, human; settings: ovarian cancer, 48 h
OVCAR-8 = assay: NCI single dose (10 µM) SRB screen; format: cell-based, human; settings: ovarian cancer, 48 h
NCI/ADR-RES = assay: NCI single dose (10 µM) SRB screen; format: cell-based, human; settings: ovarian cancer, 48 h
786-0 = assay: NCI single dose (10 µM) SRB screen; format: cell-based, human; settings: renal cancer, 48 h
A498 = assay: NCI single dose (10 µM) SRB screen; format: cell-based, human; settings: renal cancer, 48 h
ACHN = assay: NCI single dose (10 µM) SRB screen; format: cell-based, human; settings: renal cancer, 48 h
CAKI-1 = assay: NCI single dose (10 µM) SRB screen; format: cell-based, human; settings: renal cancer, 48 h
RXF 393 = assay: NCI single dose (10 µM) SRB screen; format: cell-based, human; settings: renal cancer, 48 h
SN12C = assay: NCI single dose (10 µM) SRB screen; format: cell-based, human; settings: renal cancer, 48 h
TK-10 = assay: NCI single dose (10 µM) SRB screen; format: cell-based, human; settings: renal cancer, 48 h
UO-31 = assay: NCI single dose (10 µM) SRB screen; format: cell-based, human; settings: renal cancer, 48 h
PC-3 = assay: NCI single dose (10 µM) SRB screen; format: cell-based, human; settings: prostate cancer, 48 h
DU-145 = assay: NCI single dose (10 µM) SRB screen; format: cell-based, human; settings: prostate cancer, 48 h
MCF7 = assay: NCI single dose (10 µM) SRB screen; format: cell-based, human; settings: breast cancer, 48 h
MDA-MB-231 = assay: NCI single dose (10 µM) SRB screen; format: cell-based, human; settings: breast cancer, 48 h
HS578T = assay: NCI single dose (10 µM) SRB screen; format: cell-based, human; settings: breast cancer, 48 h
T-47D = assay: NCI single dose (10 µM) SRB screen; format: cell-based, human; settings: breast cancer, 48 h
MDA-MB-468 = assay: NCI single dose (10 µM) SRB screen; format: cell-based, human; settings: breast cancer, 48 h
NCI 60 cancer cell lines = assay: NCI single dose (10 µM) SRB screen, mean over panel; format: cell-based, human; settings: mean over 60 cell lines, 48 h
Escherichia coli = assay: Agar well diffusion method
Candida albicans = assay: Agar well diffusion method
Aspergillus flavus = assay: Agar well diffusion method

COC(=O)C1=C(C)NC(C)=C(C(=O)OC)C1c1cccc(C#N)c1 [Compound 1a, Dimethyl 4-(3-cyanophenyl)-2,6-dimethyl-1,4-dihydropyridine-3,5-dicarboxylate]
GI% K-562 (K-562): – (Only GI% ≥ 10 are shown)
GI% MOLT-4 (MOLT-4): – (Only GI% ≥ 10 are shown)
GI% SR (SR): – (Only GI% ≥ 10 are shown)
GI% EKVX (EKVX): – (Only GI% ≥ 10 are shown)
GI% HOP-92 (HOP-92): – (Only GI% ≥ 10 are shown)
GI% NCI-H226 (NCI-H226): – (Only GI% ≥ 10 are shown)
GI% NCI-H23 (NCI-H23): – (Only GI% ≥ 10 are shown)
GI% NCI-H322M (NCI-H322M): – (Only GI% ≥ 10 are shown)
GI% NCI-H460 (NCI-H460): – (Only GI% ≥ 10 are shown)
GI% NCI-H522 (NCI-H522): – (Only GI% ≥ 10 are shown)
GI% COLO 205 (COLO 205): – (Only GI% ≥ 10 are shown)
GI% HCC-2998 (HCC-2998): – (Only GI% ≥ 10 are shown)
GI% HCT-116 (HCT-116): – (Only GI% ≥ 10 are shown)
GI% HCT-15 (HCT-15): – (Only GI% ≥ 10 are shown)
GI% HT29 (HT29): – (Only GI% ≥ 10 are shown)
GI% KM12 (KM12): – (Only GI% ≥ 10 are shown)
GI% SW-620 (SW-620): – (Only GI% ≥ 10 are shown)
GI% SF-268 (SF-268): – (Only GI% ≥ 10 are shown)
GI% SF-539 (SF-539): – (Only GI% ≥ 10 are shown)
GI% SNB-19 (SNB-19): – (Only GI% ≥ 10 are shown)
GI% U251 (U251): – (Only GI% ≥ 10 are shown)
GI% LOX IMVI (LOX IMVI): – (Only GI% ≥ 10 are shown)
GI% MALME-3M (MALME-3M): – (Only GI% ≥ 10 are shown)
GI% M14 (M14): – (Only GI% ≥ 10 are shown)
GI% SK-MEL-2 (SK-MEL-2): – (Only GI% ≥ 10 are shown)
GI% SK-MEL-5 (SK-MEL-5): – (Only GI% ≥ 10 are shown)
GI% UACC-257 (UACC-257): – (Only GI% ≥ 10 are shown)
GI% UACC-62 (UACC-62): – (Only GI% ≥ 10 are shown)
GI% IGROV1 (IGROV1): – (Only GI% ≥ 10 are shown)
GI% OVCAR-3 (OVCAR-3): – (Only GI% ≥ 10 are shown)
GI% OVCAR-4 (OVCAR-4): – (Only GI% ≥ 10 are shown)
GI% OVCAR-5 (OVCAR-5): – (Only GI% ≥ 10 are shown)
GI% OVCAR-8 (OVCAR-8): – (Only GI% ≥ 10 are shown)
GI% NCI/ADR-RES (NCI/ADR-RES): – (Only GI% ≥ 10 are shown)
GI% 786-0 (786-0): – (Only GI% ≥ 10 are shown)
GI% A498 (A498): – (Only GI% ≥ 10 are shown)
GI% ACHN (ACHN): – (Only GI% ≥ 10 are shown)
GI% CAKI-1 (CAKI-1): – (Only GI% ≥ 10 are shown)
GI% RXF 393 (RXF 393): – (Only GI% ≥ 10 are shown)
GI% SN12C (SN12C): – (Only GI% ≥ 10 are shown)
GI% TK-10 (TK-10): – (Only GI% ≥ 10 are shown)
GI% UO-31 (UO-31): – (Only GI% ≥ 10 are shown)
GI% PC-3 (PC-3): – (Only GI% ≥ 10 are shown)
GI% DU-145 (DU-145): – (Only GI% ≥ 10 are shown)
GI% MCF7 (MCF7): – (Only GI% ≥ 10 are shown)
GI% MDA-MB-231 (MDA-MB-231): – (Only GI% ≥ 10 are shown)
GI% HS578T (HS578T): – (Only GI% ≥ 10 are shown)
GI% T-47D (T-47D): – (Only GI% ≥ 10 are shown)
GI% MDA-MB-468 (MDA-MB-468): – (Only GI% ≥ 10 are shown)
Mean GI% (NCI 60 cancer cell lines): −4%
zone of inhibition at 1000 µg/mL (Escherichia coli; Escherichia coli, 24 h, read-out: Diameter of inhibition zone, E. coli): 8 mm
% activity index, E. coli (Escherichia coli; relative to ciprofloxacin): 30.8%
zone of inhibition at 1000 µg/mL (Candida albicans; Candida albicans, 24 h, read-out: Diameter of inhibition zone, C. albicans): 13 mm
% activity index, C. albicans (Candida albicans; relative to clotrimazole): 48.1%
zone of inhibition at 1000 µg/mL (Aspergillus flavus; Aspergillus flavus, 24 h, read-out: Diameter of inhibition zone, A. flavus): 15 mm
% activity index, A. flavus (Aspergillus flavus; relative to clotrimazole): 60%
